From PMC12299847, “Macroalgae-Inspired Brominated Chalcones as Cosmetic Ingredients with the Potential to Target Skin Inflammaging” (Marine Drugs, 2025)

Test system: iNOS protein levels in RAW264.7 macrophages
Assay: Western blot analysis of iNOS expression in LPS-stimulated macrophages
Format: cell-based, murine
Settings: for iNOS expression level: normalized against LPS condition
Method: To investigate the underlying mechanism of action of the most promising brominated chalcones (1 and 2), their effects on iNOS protein levels were assessed in LPS-stimulated macrophages at different time points (4, 6, and 24 h). The non-treated (NT) condition, consisting of macrophages stimulated with LPS but receiving no chalcone treatment, was used as the reference for maximal iNOS induction under inflammatory conditions and served as a positive control. The selected concentrations (7.5 μM and 15 μM) were selected based on chalcones 1 and 2 cytocompatibility (Figure 3) and efficacy in reducing NO production (Figure 4). Since NO production is a direct consequence of iNOS enzymatic activity, where the enzyme catalyzes the conversion of L-arginine to NO following inflammatory stimulation such as LPS, this provides a functional readout of iNOS expression and activity.
Here, we focused on validating iNOS expression at the protein level by western blot (Figure 6). While gene-level expression was not assessed, it is well established that LPS stimulation induces both iNOS transcription and translation in RAW 264.7 macrophages. Moreover, changes observed at the protein level are often closely associated with upstream transcriptional or translational modulation. Therefore, quantifying iNOS protein levels provides a biologically relevant measure of the chalcones’ inhibitory effects on this key inflammatory mediator.
The expression of the iNOS enzyme was analyzed by western blot. RAW264.7 macrophages were seeded at a density of 1 × 10^6 cells/well in a 6-well plate and incubated for 24 h at 37 °C in a humidified atmosphere containing 5% CO2. After incubation, cells were treated with 7.5 µM or 15 µM of the most promising chalcones (1 and 2) for 30 min, followed by the addition of LPS to have a final concentration of 100 ng/mL. Cells were then incubated for 4, 6, or 24 h. At each time point, cells were washed with PBS and lysed in RIPA buffer. The lysates were collected in Eppendorf tubes and kept on ice, with intermittent vortexing to ensure thorough lysis. Samples were centrifuged at 18,000× g for 16 min at 4 °C, and the supernatant was collected. Total protein concentration was determined using the Pierce™ BCA Protein Assay Kit (Thermo Scientific, 23225, Waltham, MA, USA), following the manufacturer’s instructions. Equal amounts of protein (25 µg) were loaded onto Bolt™ 8% Bis-Tris Mini Protein Gels (Invitrogen™, NW00087BOX, Waltham, MA, USA) and separated via electrophoresis. Proteins were then transferred onto nitrocellulose membranes (Invitrogen™, IB24002) using the iBlot® 2 dry transfer system (Invitrogen™, Waltham, MA, USA). After transfer, membranes were sectioned to separate the iNOS bands from those of the housekeeping protein GAPDH. Membranes were blocked for 1 h at room temperature in TBS-T containing 5% BSA and subsequently incubated overnight at 4 °C with primary antibodies against iNOS (Cell Signaling Technology, 16713120S, Danvers, MA, USA) or GAPDH (Abcam, ab181602, Cambridge, UK), diluted in TBS-T with 1% BSA. On the following day, membranes were washed three times with TBS-T and incubated for 1 h at room temperature with an HRP-conjugated secondary antibody (Cell Signaling Technology, 7074S) diluted in TBS-T with 1% BSA. After three additional washes, signal detection was performed using Clarity™ Western ECL Substrate (Bio-Rad, 1705061, Hercules, CA, USA), and chemiluminescent signals were acquired using the Odyssey FC imaging system (LI-COR, Lincoln, NE, USA). Densitometric analysis of iNOS bands was performed using Image Studio™ Software (version 5.2, LI-COR, Lincoln, NE, USA), with values normalized to the corresponding GAPDH bands.
Figure 6 iNOS expression level after treatment of 4, 6, and 24 h with chalcones 1 and 2 in macrophage cell line. Results are expressed as volume arbitrary unit (A). […]

COc1cc(Br)c(/C=C/C(=O)c2cc(OC)c(OC)cc2Br)cc1OC [Chalcone 1]
iNOS expression level (7.5 µM, 4 h): 84.7%
iNOS expression level (7.5 µM, 24 h): 14.3%
iNOS expression level (15 µM, 4 h): 28.3%
iNOS expression level (15 µM, 6 h): 13.5%
iNOS expression level (15 µM, 24 h): 16.7%
maximum reduction of iNOS expression (regardless of concentration (7.5 µM at 24 h, 15 µM at 6 h)): approximately 85%
